# In the METLIN SMRT retention time set (Domingo-Almenara et al. 2019):
# Assay: gradient 5% acetonitrile 3 min, to 50% in 2 min, to 85% in 15 min, held 3 min, 100 µL/min
# Settings: column: Zorbax Extend-C18 2.1 x 50 mm; eluents: water / acetonitrile, 0.1% formic acid
# Outline: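 Using water and acetonitrile that each contained 0.1% formic acid, mixtures of ~100 pure standards were separated at 100 μL/min on a Zorbax Extend-C18 column (2.1 × 50 mm, 1.8 μm). The HPLC fed a quadrupole time-of-flight mass spectrometer working in positive and negative ionization mode, with dead and dwell volumes of 40 μL and 900 μL. Data were acquired over 3 months. Retention time was read from computationally picked adduct peaks after manual inspection of each.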
row,SMILES,RP-LC retention time [s]
1,Cc1c(Cn2c(C)nc3c(C(=O)O)cc(N4CCOCC4)cc32)cccc1C(F)(F)F,741
2,COCCNC(=O)c1cc2c(s1)N(C)CCC2,703
3,COc1ccccc1N1CCN(CC(O)COc2cccc3ccccc23)CC1 (stereo unspecified),838
4,O=C(CCCn1c(=O)c2cccn2c2ccc(Br)cc21)NCc1ccccn1,646
5,Cc1nn(CC(=O)NCC2CCCCC2)c(=O)c2nc(-c3ccccc3)sc12,958
6,COc1ccc(-n2nc(C)c3sc(N(C)CC(=O)N4CCN(c5ccccn5)CC4)nc32)cc1,669
7,O=C(Cn1ccc2ccc(N3CCOCC3)nc21)NCc1ccco1,773
8,CCn1nccc1-c1csc(S(=O)(=O)NCc2cccs2)c1,866
9,O=C(NCCN1CCCCCC1)c1ccc2c(c1)NC(=O)C1CCCCN21 (stereo unspecified),601
10,C=C[C@H]1CN2CC[C@H]1C[C@H]2[C@H](O)c1ccnc2ccc(OC)cc12,592
11,Cc1cc(C(=O)N2CCC(c3noc(-c4cnccn4)n3)C2)nn1C (stereo unspecified),641
12,O=S(=O)(c1ccc(Cl)cc1)N1CCc2nc(-c3ccccc3)ncc2C1,1080
13,COc1ccc(-c2ncccc2CNS(=O)(=O)c2cccc(C#N)c2)cc1,660
14,O=C(CN1C(=O)CCCc2cc(S(=O)(=O)N3CCCCCC3)ccc21)NCc1ccccc1,905
15,c1ccc(-c2noc(C3CNC3)n2)cc1,557
16,O=C(c1cn(-c2ccc(-c3nc(C4CC4)no3)cn2)cn1)N1CCSCC1,819
17,COc1ccc(-c2cnn3c(C)cc(C)nc23)cc1S(=O)(=O)NC(C)c1ccccc1 (stereo unspecified),1010
18,CCN1CCN(c2nc(F)c3c(c2F)S(=O)(=O)CCN3C2CCCCC2)CC1,700
19,CC(C)NC(=O)c1cc(C(C)(C)C)[nH]n1,710
20,CCN1C(=O)C(C)(C)COc2ccc(NC(=O)Cc3ccc(F)cc3)cc21,889
21,Cc1ccsc1C(=O)NCC1Cn2cccc2C(=O)N1C (stereo unspecified),656
22,COc1ccc2c(c1)C1(CCN(C(=O)COc3ccccc3)C1)C(=O)N2C (stereo unspecified),791
23,CSc1cccc(NC(=O)Nc2cccc(-c3ccc(N4CCOCC4)nn3)c2)c1,742

row,SMILES,RP-LC retention time [s]
1,CCCN(CCC)C1Cc2cc(OC)c(OC)cc2C1,680
2,Cc1cc(C)c(-c2noc(C)n2)c(NC(=O)c2ccc(C)c(F)c2)n1,781
3,COc1ccc(-c2cc(C(F)(F)F)n3ncc(C(=O)O)c3n2)cc1OC,777
4,O=C(c1n[nH]c2c1CCCC2)N1CCCCC1,695
5,CCC(=O)Nc1cccn2nc(CC)nc12,657
6,CCc1cccc(C)c1N(C(=O)Cn1c(CC)nc2ccccc21)C(C)COC (stereo unspecified),776
7,COCCNC(=O)c1ccc2c(c1)CCCN2S(C)(=O)=O,649
8,Cc1cc(C)cc(N2CCC(NC(=O)CC(C)(C)C)C2=O)c1 (stereo unspecified),877
9,O=C(Cn1cccn1)NC1CCc2nnc(C3CC3)n2CC1 (stereo unspecified),543
10,CN(CC1COCCO1)c1ccc(C(=O)O)cc1NC(=O)c1ccccc1Cl (stereo unspecified),771
11,COc1ccc(C(=O)Nc2nnc(SCc3nnc(-c4ccc5c(c4)OCO5)o3)s2)cc1OC,834
12,O=C1Nc2cc(C(=O)N3CCN(Cc4ccc5c(c4)OCO5)CC3)ccc2N2CCCCC12 (stereo unspecified),624
13,COc1ccc(NC(=O)C2=Cc3cc(OC)ccc3OC=C2)cc1,976
14,O=c1c2cc3c(cc2nc(SCc2nc(-c4cccc(F)c4)no2)n1-c1ccc(F)cc1)OCO3,1170
15,CCOc1ccc(CCNC(=O)C2CCCN(c3nccc(C)n3)C2)cc1OCC (stereo unspecified),767
16,Cc1cc(C2CCCN2C(=O)Nc2cc(Cl)ccc2C)no1 (stereo unspecified),893
17,Cc1nn2c(CNC(=O)c3ccsc3)c(-c3ccccc3)nc2s1,782
18,CCCS(=O)(=O)N1CC(=O)N(c2ccc(F)cc2C)C(C)(C(=O)NC2CCCCC2)C1 (stereo unspecified),925
19,Cc1noc(-c2ccc(OC3CN(C(=O)c4cccn4C)C3)cc2)n1,898
20,O=C(c1ccc(F)c(F)c1)N1CCN(c2nc(CN3CCOCC3)cs2)CC1,617
21,CS(=O)(=O)N1CC(C(=O)Nc2ccccc2)C2(CCCCC2)C1 (stereo unspecified),875
22,Cc1ccc(CNC(=O)Cn2cc(C(=O)N3CCCC3)c(=O)c3ccc(C)nc32)cc1,694
23,CCN1CCN(c2ccc(NC(=O)c3cccc(Cl)c3)cn2)C1=O,802

row,SMILES,RP-LC retention time [s]
1,OC[C@@H]1CN(C2CCCC2)C[C@H]1c1nc(-c2ccncc2)no1,553
2,Cc1ccc2[nH]cc(CCNC(=O)CCc3nnc(C(=O)Nc4ccccc4)s3)c2c1,875
3,CC(C)C(=O)NCc1cnn(-c2ccc(C(=O)NCC3CCCO3)cc2)c1 (stereo unspecified),640
4,CC1(C)CC(=O)C2=C(C1)N(CC1CCCO1)C(=O)C2(NC(=O)c1ccc(Cl)cc1)C(F)(F)F (stereo unspecified),975
5,CCOC(=O)C1CCN(C(=O)c2nnc(-c3ccc(S(=O)(=O)N4CCOCC4)cc3)o2)CC1,826
6,CC1=C(c2ccccc2)S(=O)(=O)N=C1N1CCCN(C(=O)c2cccc(C#N)c2)CC1,777
7,Cn1c(CN2CCN(C(=O)COc3ccc(F)cc3)CC2)nc2ccccc21,581
8,Cc1ccc(NC(=O)Cn2nc3cc(C)nc(-c4ccccc4)n3c2=O)c(C)c1,832
9,COc1ccc(Cl)cc1NC(=O)CSc1ccc(-c2ccccn2)nn1,934
10,CCOC(=O)C1=C(CN2CC=C(c3ccccc3)CC2)NC(=O)NC1c1cccc(OC)c1OC (stereo unspecified),704
11,Cc1nnc(C2CCCN(C(=O)c3cc(C(F)(F)F)cc(C(F)(F)F)c3)C2)s1 (stereo unspecified),823
12,Cc1nnc(N2CCCC(C(=O)NCc3ccc(Cl)cc3)C2)c2nn(-c3ccccc3)c(C)c12 (stereo unspecified),760
13,CCOC(=O)c1c(C)c(CCC(=O)NCc2cn[nH]c2C)n(C)c1C,663
14,COc1ccc(OC)c(CN2C(=O)c3ccccc3C2C(=O)NCC2CCCO2)c1 (stereo unspecified),641
15,CCOC(=O)c1[nH]c(C)c(CCC(=O)N2CCC(C(=O)NC(C)C)CC2)c1C,683
16,COc1ccc(Oc2cc3c(cc2NC(=O)Nc2ccccc2)n(C)c(=O)n3C)cc1,893
17,CCCN1CCN(CCNc2nnc(-c3nc(C4CC4)no3)c3ccccc23)CC1,597
18,O=C(c1ccc(Cl)cc1)N1CCCCC(Sc2ncnc3sccc23)C1=O (stereo unspecified),1050
19,CCCn1cc(C2=CCN(S(=O)(=O)Cc3ccccc3)CC2)c2cccnc21,1070
20,CCOc1ccccc1NC(=O)N1CCCC1c1nc(-c2ccccc2OC)no1 (stereo unspecified),809
21,CCOC(=O)c1c(C)c(CCC(=O)NC2CCCCC2)n(C)c1C,892
22,CC(C)C(=O)N1CCc2c(c(-c3nncn3C(C)C)nn2C)C1,639
23,CCCNC(=O)CSc1ccc(-n2nc3c(c2C)CCC3)nn1,865

row,SMILES,RP-LC retention time [s]
1,CCCn1ncc(N2CCC(C(=O)N3CCOCC3)CC2)cc1=O,619
2,O=C(c1cc2ccccc2[nH]1)N1CCN(c2ccc(=O)n(-c3ccc(Cl)cc3)n2)CC1,918
3,CCOc1cccc(-c2noc(CN3C(=O)COc4ccc(C(C)(C)C)cc43)n2)c1,1380
4,COc1cc(NC(=O)C2CCCN(C(=O)c3cc(-c4ccncc4)n[nH]3)C2)cc(OC)c1OC (stereo unspecified),591
5,CN(Cc1nc(-c2ccc(N3CCCCC3)nc2)no1)C1CCCCC1,666
6,O=C(c1cn2ccccc2n1)N1CCN(c2ccc(F)cc2)CC1,652
7,COc1ccc(OC)c(NC(=O)C2CCCN2S(=O)(=O)c2ccc3c(c2)NC(=O)CO3)c1 (stereo unspecified),803
8,CCOc1cc2c(cc1OCC)C1C(C(=O)N3CCN(C)CC3)c3ccccc3C(=O)N1CC2 (stereo unspecified),567
9,CCCN(C)C(=O)c1cn2ccnc(-c3ccc(C)cc3)c2n1,956
10,Cn1nc(C(=O)N2CCCCC2)c2c1CCN(C(=O)CCC(=O)N1CCCC1)C2,622
11,COc1ccc(C2(C(=O)N3CCCCCCNC(=O)[C@@H]4CCCC[C@@H]43)CC2)cc1,894
12,CCOCC(=O)Nc1ccc(-c2cn3c(C(=O)N(C)C)csc3n2)cc1,647
13,Cc1cccc(-c2csc3c(=O)n(CC(=O)OC(C)(C)C)cnc23)c1,1070
14,Cc1sc(-c2nnc(C3CC3)o2)cc1NC(=O)C1CC1,819
15,Cc1nc2c(c(N(C)CC(=O)N3CCCC3)n1)CCC2,561
16,CCOc1cc(=O)n2c(c1C(=O)NC1CCc3ccccc31)CCCCC2 (stereo unspecified),766
17,CCCOC(=O)C1=C(C)NC2=C(C(=O)C(C(=O)OC)C(C)C2)C1c1cccc(F)c1 (stereo unspecified),994
18,COc1cc(=O)c(C(N)=O)nn1-c1ccc(C)cc1,612
19,CO[C@H]1C(=O)N(C2CCN(S(=O)(=O)c3ccc(C#N)cc3)CC2)[C@H]1c1ccncc1,624
20,Cc1ccc(NC(=O)c2cccn2Cc2noc(C3CC3)n2)cc1F,1010
21,CCC1CCCCN1CCCNC(=O)CCCn1c(=O)c2cccn2c2ccccc21 (stereo unspecified),641
22,CCNS(=O)(=O)c1ccc(NC(=O)C2CCN(C(=O)C(C)(C)C)CC2)cc1,722
